# Several values for one entry are separate records, joined by “and”; a condition that tells them apart may be missing. Identical values can stand only once.
# Assays:
# [1] = irinotecan 125 mg/m^2 weekly×4, Q6W; cited from earlier work
# [2] = tested on: patients with diverse metastatic cancers; assay: Phase I / phase II extension clinical trial of IMMU-132: best response, time to progression, case reports; format: in vivo, human
# Procedure: In a 3+3 trial design, IMMU-132 was given on days 1 and 8 in repeated 21-day cycles, starting at 8 mg/kg/dose, then 12 and 18 mg/kg before dose-limiting neutropenia. To optimize cumulative treatment with minimal delays, phase II is focusing on 8 and 10 mg/kg (n=30 and 14, respectively). […] In the Phase I and the expansion phases, there are now 48 pts (excluding PDC) who are assessable by RECIST/CT for best response.
# A total of 69 patients (including 25 patients in Phase I) with diverse metastatic cancers having a median of 3 prior therapies were reported. Eight patients had clinical progression and withdrew before CT assessment. Thirteen CT-assessable pancreatic cancer patients were separately reported.
# A total of 48 patients with diverse cancers had at least 1 CT-assessment from which Best Response (not shown) and Time to Progression (TTP; not shown) were determined.
# [3] = In vivo animal studies of SN-38 release from conjugate
# [4] = human, in vivo
# [5] = Clinical pharmacokinetics of IMMU-132 in serum (ELISA, HPLC of SN-38); format: in vivo, human
# Procedure: Two ELISA methods were used to measure the clearance of the IgG (capture with anti-hRS7 idiotype antibody) and the intact conjugate (capture with anti-SN-38 IgG/probe with anti-hRS7 idiotype antibody). SN-38 was measured by HPLC.
# [6] = tested on: stage IIIB NSCLC (squamous cell carcinoma); assay: Example 10: treatment of NSCLC patient after detection of Trop-2+ CTCs; format: in vivo, human; conditions: person
# Procedure: A […]® system and Circulating Tumor Cell Kit are obtained Veridex LLC (Raritan, N.J.). A 7.5 ml blood sample is collected from a person with suspected NSCLC and stored in a CellSave tube (Veridex LLC). The anti-Trop-2 hRS7 antibody is substituted for the anti-EpCAM antibody provided with the […]® kit. The blood sample is mixed with magnetic nanoparticles conjugated to anti-Trop-2 antibody. Cells are stained with fluorescently labeled anti-CD45 and anti-CK antibodies and cell nuclei are fluorescently labeled with DAPI nuclear dye. A strong magnetic field is generated in the […]® system and used to separate cells bound to the magnetic nanoparticles, which are then analyzed by FISH to determine Trop-2 copy number, as described in Example 7 above.
# Initial treatment of caboplatin/etoposide (3 mo) in concert with 7000 cGy XRT results in a response lasting 10 mo. The patient is then started on Tarceva maintenance therapy, which they continue until they were considered for IMMU-132 (hRS7-CL2A-SN-38) trial, in addition to undergoing a lumbar laminectomy. They receive the first dose of IMMU-132 after 5 months of Tarceva, presenting at the time with a 5.6-cm lesion in the right lung with abundant pleural effusion.
# [7] = tested on: Capan-1 human pancreatic tumor xenografts; assay: SN-38 delivery to tumor in nude mice bearing Capan-1 xenografts; format: in vivo
# Source text: The present Example reports results from a phase I clinical trial and ongoing phase II extension with IMMU-132 (sacituzumab govitecan), an antibody-drug conjugate (ADC) of the internalizing, humanized, hRS7 anti-Trop-2 antibody conjugated by a pH-sensitive linker to SN-38 (mean drug-antibody ratio=7.6). Trop-2 is a type I transmembrane, calcium-transducing, protein expressed at high density (˜1×10^5), frequency, and specificity by many human carcinomas, with limited normal tissue expression.
# [8] = Phase I/II clinical trial of IMMU-132: related adverse events and dose reductions; format: in vivo, human
# [9] = molecular target: DDD of the RII form of PKA (Homo sapiens, UniProt P13861); conditions: Alto et al. 2003; read-out: binding constant for DDD; cited from earlier work
# RII isoform of PKA = RII isoform of PKA (Homo sapiens, UniProt P13861); conditions: Gold et al. 2006; cited from earlier work
# [10] = 48 pts (excluding PDC) assessable by RECIST/CT
# [11] = all patients treated, 48 assessable
# [12] = esophageal cancer, 4 assessable patients
# [13] = starting dose 8 or 10 mg/kg, N = 123 patients
# RII isoform of PKA, sequence (P13861 whole entry, canonical isoform): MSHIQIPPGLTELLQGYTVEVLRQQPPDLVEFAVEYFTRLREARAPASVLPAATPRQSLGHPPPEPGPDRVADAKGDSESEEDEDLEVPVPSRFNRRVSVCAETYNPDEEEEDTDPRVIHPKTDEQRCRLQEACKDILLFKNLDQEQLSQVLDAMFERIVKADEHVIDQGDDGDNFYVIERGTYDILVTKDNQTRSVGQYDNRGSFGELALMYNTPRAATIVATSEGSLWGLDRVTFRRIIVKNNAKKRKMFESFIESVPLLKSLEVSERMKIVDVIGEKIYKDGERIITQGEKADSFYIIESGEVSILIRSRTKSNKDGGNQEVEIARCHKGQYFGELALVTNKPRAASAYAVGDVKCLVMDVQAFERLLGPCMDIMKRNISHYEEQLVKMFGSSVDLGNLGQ
# DDD of the RII form of PKA, sequence (P13861 2-45 limits assumed): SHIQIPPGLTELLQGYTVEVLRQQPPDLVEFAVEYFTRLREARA
compound,measurement,setting,value
CCc1c2c(nc3ccc(OC(=O)N4CCC(N5CCCCC5)CC4)cc13)-c1cc3c(c(=O)n1C2)COC(=O)[C@]3(O)CC [irinotecan],incidence of grade ¾ diarrhea,[1],38%
same,incidence of neutropenia,[1],31%
same,incidence of neutropenic fever/infection,[1],8%
"CC[C@@]1(O)C(=O)OCc2c1cc1n(c2=O)Cc2cc3c(CN(C)C)c(O)ccc3nc2-1 [topotecan, reference compound]",response to prior therapy,"[2]; person with SCLC, therapy ended after 2 months",no response
IMMU-132,SN-38 released daily,[3],50%
same,anti-hRS7 or anti-SN-38 antibodies,[4],No anti-hRS7 or anti-SN-38 antibodies were detected
same,antibody response to IMMU-132,[4],no evidence of an antibody response
same,clearance of total IMMU-132 fraction (intact conjugate) vs IgG,[5]; ELISA,cleared more quickly than the IgG
same,SN-38 in the serum bound to the IgG,"[5]; HPLC, unbound and total SN-38, non-glucoronidated form",> 95%
same,serum SN-38 concentration relative to SN-38 reported in patients given irinotecan,"[5]; human, in vivo",≤ 100 fold
same,time for conjugate to clear from the serum,[5]; patients,≤ 3 days
same,concentrations of SN-38G,"[5]; serum, HPLC",Low concentrations
same,Trop-2+ CTC number following treatment,"[6]; NSCLC, periodic assays",substantial reduction
same,primary target lesion size at first CT,"[6]; stage IIIB NSCLC, after 6th dose, 5.6-cm lesion at start",3.2 cm
same,PDC patients with SD,[2]; 13 CT-assessable PDC pts,62%
same,median time to progression (TTP) in PDC patients,"[2]; 13 CT-assessable pancreatic cancer patients, 8 wks in last prior therapy",12.7 wks and 11.9 wks
same,patients with disease response (total),[2]; [10],79%
same,patients with partial response (PR),[2]; [10],15%
same,TTP for the remaining 48 pts,[2]; 48 pts excluding PDC,≥ 12.6 wks
same,total response [PR+SD],"[2]; CRC, 12/18",67%
same,PD,"[2]; CRC, 18 assessable patients",6 patients
same,PR,"[2]; CRC, 18 assessable patients",1 patients
same,clinical benefit ratio (CR+PR+(SD≧4 mo)]),"[2]; EAC, 16 assessable patients",44%
same,objective response,"[2]; EAC, 16 assessable patients (2 patients)",13%
same,disease control,"[2]; EAC, 16 assessable patients (9 patients)",56%
same,PD,"[2]; NSCLC, 5 assessable patients",1 patients
same,PR,"[2]; NSCLC, 5 assessable patients",1 patients
same,clinical benefit ratio (CR+PR+(SD≧4 mo)]),"[2]; NSCLC, 19 assessable patients",59%
same,objective response,"[2]; NSCLC, 19 assessable patients (6 patients)",32%
same,disease control,"[2]; NSCLC, 19 assessable patients (14 patients)",74%
same,total response [PR+SD],"[2]; NSCLC, ⅘",80%
same,total response [PR+SD],"[2]; SCLC, 2/4",50%
same,PD,"[2]; SCLC, 4 assessable patients",2 patients
same,PR,"[2]; SCLC, 4 assessable patients",2 patients
same,clinical benefit ratio (CR+PR+(SD≧4 mo)]),"[2]; SCLC, 20 assessable patients",55%
same,clinical benefit ratio (CR+PR+(SD≧6 mo)]),"[2]; SCLC, 20 assessable patients",37%
same,objective response,"[2]; SCLC, 20 assessable patients (6 patients)",30%
same,disease control,"[2]; SCLC, 20 assessable patients (11 patients)",55%
same,total response [PR+SD],"[2]; TNBC, 6/8",75%
same,PD (progressive disease),"[2]; TNBC, 8 assessable patients",2 patients
same,PR (partial response),"[2]; TNBC, 8 assessable patients",2 patients
same,clinical benefit ratio (CR+PR+(SD≧4 mo)]),"[2]; TNBC, 46 assessable patients",63%
same,clinical benefit ratio (CR+PR+(SD≧6 mo)]),"[2]; TNBC, 46 assessable patients",46%
same,objective response,"[2]; TNBC, 46 assessable patients (12 patients)",26%
same,disease control,"[2]; TNBC, 46 assessable patients (34 patients)",74%
same,total response [PR+SD],"[2]; all patients treated, 34/48",71%
same,PD,[2]; [11],14 patients
same,PR,[2]; [11],7 patients
same,PD,[2]; [12],1 patients
same,PR,[2]; [12],1 patients
same,total response [PR+SD],"[2]; esophageal cancer, ¾",75%
same,maximum reduction in target lesions,"[2]; person with CRC, after 10 months of treatment",65%
same,CEA after treatment,"[2]; person with CRC, decrease from 781 ng/mL",26.5 ng/mL
same,reduction in target lesions at first CT assessment,"[2]; person with CRC, starting dose 8 mg/kg",37%
same,reduction in target lesions,"[2]; person with SCLC, 12 mg/kg reduced to 6.8 mg/kg, after two months",38%
same,primary target lesion size at first CT,"[2]; person, stage IIIB NSCLC, after 6th dose, 5.6 cm lesion at start",3.2 cm
same,SN-38 delivered to tumor relative to maximally tolerated irinotecan therapy,[7],≤ 136 fold
same,alopecia,"[8]; human, in vivo",40%
same,diarrhea,"[8]; human, in vivo",47%
same,diarrhea ≧G3,"[8]; human, in vivo",9%
same,fatigue,"[8]; human, in vivo",55%
same,fatigue ≧G3,"[8]; human, in vivo",9%
same,nausea,"[8]; human, in vivo",53%
same,nausea ≧G3,"[8]; human, in vivo",0%
same,neutropenia G4,"[8]; human, in vivo",4%
same,neutropenia ≧G3,"[8]; human, in vivo",28%
same,vomiting,"[8]; human, in vivo",32%
same,vomiting ≧G3,"[8]; human, in vivo",2%
same,patients provided with a dose reduction,"[8]; human, in vivo, 8 mg/kg",16%
same,patients provided with a dose reduction,"[8]; human, in vivo, 10 mg/kg",15%
same,patients provided with a dose reduction,"[8]; human, in vivo, 12 mg/kg",67%
same,patients provided with a dose reduction,"[8]; human, in vivo, 18 mg/kg",100%
same,"Urinary Tract Infection, Grade 3",[8]; [13],1 (1%) patients (%)
same,"Urinary Tract Infection, Grade 4",[8]; [13],0 patients (%)
QIEYLAKQIVDNAIQQA [AKAP-IS],Kd,[9],0.4 nM
QIEYVAKQIVDYAIHQA [SuperAKAP-IS],selectivity for the RII isoform of PKA compared with the RI isoform,RII isoform of PKA,five order of magnitude higher selectivity

# Source: patent US9797907B2, “Isolation, detection, diagnosis and/or characterization of circulating Trop-2-positive cancer cells” (Immunomedics, Inc., priority 2015, dated 2017)
